The record followed here is patent US20260077055A1, “COMPOSITIONS OF POLYPLEXES AND SAPONINS” (SAPREME TECHNOLOGIES B.V., priority 2022, published 2026).

For data set [1], the system named is extrinsic part of the coagulation cascade. The data set is described as follows: Prothrombin time in fresh whole blood. The settings on record: reference 70-130%.
Procedure: (§1) As a next step, the erythrocyte aggregation propensity of the scaffolds was examined under an optical microscope to visualize possible interactions of the scaffolds and polyplexes with RBCs and their surface (FIG. 24C). […] Next, the impact on haemostasis was investigated. […] Consequently, to investigate the impact of the PAMAM- and peptide-based scaffolds on the patient's blood coagulation, these two parameters were measured in fresh whole blood after incubation of nanoparticles at different concentrations (0 nM-5 μM).
The next data set relates to intrinsic pathway. The data set is described as follows: Activated partial thromboplastin time in fresh whole blood. The settings on record: 0.1 μM; reference 26-40 s.
A further data set concerns red blood cells (RBCs). The experiment in a line: Haemolysis assay. The data set is classed as cell-based, human. The note with it: 2.5-80 μg/mL, 3 h at 37° C. As for the experimental part:
To get a first estimation of the haemolytic activity of the scaffolds and its potential to induce aggregation of red blood cells, possible disruption of red blood cells was investigated by measuring the release of haemoglobin into the supernatant according to the scheme shown in FIG. 24A. First, the red blood cells (RBCs) were treated with solutions containing PAMAM- or peptide-based scaffolds or polyplexes obtained therewith at different concentrations (2.5-80 μg/mL). The incubation was performed for 3 h at 37° C. RBCs treated with PBS under same conditions were used as a negative control while samples treated with Triton X-100 (10%) were used as a positive control corresponding to conditions of full haemolysis. After centrifugation, the absorbance at 540 nm (OD540) of the supernatants was recorded with a spectrometer. The following equation was used for the calculation of the percentages of haemolysis: […]

The next data set relates to RBCs. The experiment in a line: Erythrocyte aggregation under optical microscope. The note with it: up to 80 μg/mL.
The test system of a further data set is EGFR+ A431 cells. The experiment in a line: Cell viability (MTS) after polyplex transfection of A431 cells. The data set is classed as cell-based. The note with it: for cell killing activity / saporin gene delivery, K16C npSaporin polyplexes: K16C alone up to about 5000 μM of plasmids (printed), SO1861-EMCH = free, co-administered with K16C-polyplexes. Here is the method: Spectrophotometry: Concentrations were determined using either a Thermo Nanodrop 2000 spectrometer or Perkin Elmer Lambda 365 Spectrophotometer. DLS measurements: DLS measurements were performed on a Malvern Nano ZS (Malvern Instruments, U.K.), operating at 633 nm with a 173° scattering angle, at 25 or 37° C. DLS mean diameters were obtained from the intensity particle size distribution provided by Malvern Zetasizer Software. DLS histograms were obtained from the intensity particle size distributions. Zeta-potential: The zeta-potential values of the polyplexes were obtained by laser doppler anemometry (LDA), measuring the mean electrophoretic mobility (Malvern Zetasizer Nano ZS, Malvern Instruments, U.K.). Measurements were performed in 10 mM HEPES pH 7.1, 150 mM NaCl. TEM measurements: TEM measurements were performed on a JEOL JEM-1011 operated at 100 kV electron microscope, equipped with a camera S5 MegaView G2. A drop of a solution of polyplexes (0.1 mg/mL) was settled on a PELCO® TEM carbon type-B film copper grid and allowed to dry at room temperature for 1 h. Infrared Spectroscopy: FT-IR spectra were recorded on a Bruker Vertex 70v, equipped with a RockSolid interferometer, after preparing the samples (1-2 mg) as KBr pellets. Spectra were processed using OPUS 7.8 software (Bruker). NMR Spectroscopy: 1H NMR spectra were recorded on a 11.7 T Bruker DRX-500 spectrometer. Chemical shifts are reported in ppm (o units) downfield from the HOD residual solvent peak (CD3OD). Experiments were recorded acquiring 64-512 scans, with a pre-scan delay (d1) of 12 s, and an acquisition time (aq) of 4 s at 300 K. 13C NMR spectrum was recorder on a 9.39 T Varian Innova 400 spectrometer. MestReNova 14.2 software (Mestrelab Research) was used for spectra processing. Cell culture conditions and treatments: HEK293FT, A431, A2058, Neuro2A, Hepa1-6 and MDA-MB 468 were maintained in 10% FBS-supplemented DMEM medium (PAN-Biotech GmbH, or Lonza Group, Basel, Switzerland)+Pen/Strep at 37° C. with 5% CO2. […] SO1861-EMCH was conjugated into/onto these polyplexes or co-administrated at 966 or 4000 nM to the different cell lines in vitro (as indicated). For this, cells were seeded in a 96 well plate at 5.000-10.000 c/w in 100 μL/well and incubated overnight at 37° C. Before treatment, the mAb-SO1861 and polyplexes were diluted separately in DPBS (PAN-Biotech GmbH) to 10× the required final concentration. The cells received 80 μL/well fresh media, followed by 20 μL/well polyplex solution and 20 μL/well saponin solution. In particular, before K16-polyplex treatments, K16-polyplexes were formulated in 10 mM HEPES, incubated for 30 min at room temperature and then diluted with complete cell culture medium. The complete cell culture medium was exchanged against 100 μL transfection medium. For co-administration of SO1861-EMCH, the transfection medium was supplemented with 2 μg/mL (=966 nM) SO1861-EMCH. Control transfections were performed with Lipofectamine™ 3000 Transfection Reagent (Thermo Fisher Scientific) according to the manufacturer's instruction, using either […] or 100 ng plasmid and with a media change 4-5 hrs after transfection. […] After treatment, the cells were incubated for 72 hr at 37° C. before the cell viability was determined by a MTS-assay performed according to the manufacturer's instruction (CellTiter 96® AQueous One Solution Cell Proliferation Assay, Promega). […]

Where a SMILES comes first, the peptide text is derived from it. [ ]: non-standard residue; d: D form. Lys(N3) = [N-]=[N+]=NCCCC[C@H](N)C(=O)O

Procedure for intrinsic pathway: as §1

On to `[N-]=[N+]=NCCCC[C@H](NC(=O)[C@H](Cc1ccc(O)cc1)NC(=O)CNC(=O)CNC(=O)[C@H](CS)NC(=O)CNC(=O)CNC(=O)CNC(=O)CNC(=O)[C@H](CCCCN)NC(=O)[C@H](CCCCN)NC(=O)[C@H](CCCCN)NC(=O)[C@H](CCCCN)NC(=O)[C@H](CCCCN)NC(=O)[C@H](CCCCN)NC(=O)[C@H](CCCCN)NC(=O)[C@H](CCCCN)NC(=O)[C@H](CCCCN)NC(=O)[C@H](CCCCN)NC(=O)[C@H](CCCCN)NC(=O)[C@H](CCCCN)NC(=O)[C@H](CCCCN)NC(=O)[C@H](CCCCN)NC(=O)[C@H](CCCCN)NC(=O)[C@@H](N)CCCCN)C(N)=O` [K16C, K16G4CGGYK (N3)] (H-KKKKKKKKKKKKKKKKGGGGCGGY[Lys(N3)]-NH2), for which the “prothrombin time (PT)” value in data set [1] (0.1 μM) worked out at 100%; in data set [1] (0.5 μM) it was 82%; in data set [1] (1 μM), 61%; in data set [1] (5 μM) it was 33.5%. Besides, in the data set with intrinsic pathway, the “partial thromboplastin time (PTT)” value worked out at 38.5 s. In addition, in the data set on red blood cells (RBCs), the haemolytic activity entry is recorded as “surprisingly low haemolysis degree”. In addition, in the data set with RBCs, the erythrocyte aggregation result was “did not cause any RBC aggregation”. Also, in the data set with EGFR+ A431 cells, the “cell killing activity / saporin gene delivery, K16C npSaporin polyplexes” value is reported as “practically no cell killing activity”. In addition, the “cell killing activity of K16C npSaporin polyplex” value in the data set with EGFR+ A431 cells (up to about 1000 pM of plasmid, absence of free saponin or targeted saponin, N/P ratio 10) was “practically no enhanced cell killing activity”.
Consider “K16G4CGGYK (N3)-SO18610.25 [K16C-(SO1861)0.25 eq]”, for which, in the data set on EGFR+ A431 cells, the “cell killing activity / saporin gene delivery, K16C npSaporin polyplexes” value is reported as “the most efficient in saporin gene delivery into the cytoplasm”.
